Source: US20250032425A1, “FIRST IN CLASS USE OF ESTROGEN RECEPTOR BETA AGONISTS IN TREATING ANGELMAN SYNDROME AND RELEVANT AUTISM SPECTRUM DISORDERS” (BROWN UNIVERSITY, priority 2023, published 2025)
“Also recorded” adds a separate entry of the source.

How the values were obtained:
[1] = tested on: iOPCs expressing Cas9 and a sgRNA targeting UBE3A; assay: EdU incorporation in iOPCs with CRISPR/Cas9 UBE3A depletion (Lenti-sgUBE3A #1-3); assay type: cell-based, human; settings: 10 μM; any of the sgRNAs
Method: The sgRNAs targeting UBE3A, and negative control were obtained from Applied Biological Materials Inc. Targeting sgRNA sequences against UBE3A are: sgRNA1, […]; sgRNA2, […]; sgRNA3, […]. These sgRNAs were integrated into the backbone of the negative control pLenti-U6-sgRNA-SFFV-Cas9-2A-Puro. All constructs were packaged into lentiviruses and concentrated by Lenti-X Concentrator (Takara Bio #631231). In each experiment, 5-10 μl of concentrated virus was administered into ˜70% confluent iOPCs cultures in 6-well plates. One day post-lentiviral transduction, iOPC cultures were treated with approximately 5 μg/ml Puromycin to isolate those iOPCs which are expressing Cas9/sgRNAs. Following a day of selection, the iOPCs were then seeded on gelatin-coated coverslips placed in 24-well plates at a density of 100,000 cells per well. After another day allowed for cell stabilization, treatment with either the vehicle control (DMSO), AC-186, DPN, or LY500307 commenced at a standard concentration of 10 μM. A final 24-hour period after this treatment saw the cells exposed to […] for three hours, preparing them for subsequent immunofluorescence staining.
The EdU labeling kit from ThermoFisher Scientific (#C10637) was used to trace cell proliferation by incubating iOPCs with 2 μM EdU for three hours before fixation. Following EdU incorporation, cells were fixed in 4% paraformaldehyde, blocked with normal serum, and stained with primary antibodies, Rabbit anti-Ki67 and Mouse anti-UBE3A. These steps were conducted according to the manual of the labeling kit and also detailed immunofluorescence staining protocols described below, to ensure specific detection of the proliferation marker Ki67 and the ubiquitin-protein ligase UBE3A in the cells for subsequent imaging analysis.

[2] = tested on: untreated iOPCs; assay: Baseline Ki67 expression in untreated iOPCs (normal UBE3A levels); assay type: cell-based, human; settings: 10 μM, 24 hours
Text: FIG. 19A: Schematic illustrating the process of generating iPSC-derived oligodendrocyte lineage cells using a refined protocol from Vulakh and Yang, […] (Vulakh, G., and Yang, X. (2023). Characterizing the Neuron-Glial Interactions by the Co-cultures of Human iPSC-Derived Oligodendroglia and Neurons. Methods Mol. Biol. 2683. 10.1007/978-1-0716-3287-1_9). The human iPSCs employed in this study were the extensively characterized KOLF2.J1 control reference line, sourced from the INDI (Ramos, D. M., Skarnes, W. C., Singleton, A. B., Cookson, M. R., and Ward, M. E. (2021). Tackling neurodegenerative diseases with genomic engineering: A new stem cell initiative from the NIH. Neuron 109, 1080-1083. 10.1016/j.neuron.2021.03.022). Initially, iPSCs are converted into neural precursor cells (iNPCs, marked by Nestin) through SMAD inhibition in the first week. These iNPCs are then induced into oligodendrocyte precursor cells (iOPCs, marked by PDGFRa and A2B5) by the second week. […] FIG. 19H: Baseline effects of AC-186 on OPC proliferation analyzed by Ki67 expression in untreated iOPCs exposed to vehicle or drugs (AC-186 or DPN; 10 μM, 24 hours), with densitometric signals of immunoblotting normalized to GAPDH. […]

[3] = tested on: rat OPCs with normal UBE3A levels; assay: Proliferation of rat OPCs with normal UBE3A levels; assay type: cell-based
[4] = rodents and dogs; cited from earlier work

Row | Structure (SMILES) | number of EdU+ cells [1] | Ki67 expression, baseline [2] | effect on OPCs with normal UBE3A levels [3] | bioavailability [4]
1 | Oc1ccc(C2(c3ccccc3F)CCC(F)(F)CC2)cc1 [AC-186] | increased the number of EdU+ cells | neither AC-186 nor DPN affected; also recorded: No significant changes | neither AC-186 nor DPN affected | satisfactory bioavailability; also recorded: effective bioavailability
2 | N#CC(Cc1ccc(O)cc1)c1ccc(O)cc1 (stereo not shown) [DPN, diarylpropionitrile, reference compound] | increased the number of EdU+ cells | neither AC-186 nor DPN affected; also recorded: No significant changes | neither AC-186 nor DPN affected | –
